Here are results for 13 compounds from patent US8221745B2 (Velico Medical, Inc., priority 2004, dated 2012).

Assay [1] concerns differentiated monocytic cell line THP-1. Briefly: In vitro phagocytic assay: ingestion of chilled or room temperature human platelets by THP-1 cells. The format is cell-based. The note with it: for inhibitory effect on chilled platelet phagocytosis (in words): phagocytes incubated in monosaccharide solutions at various concentrations; for inhibitory effect on RT platelet phagocytosis (in words): room temperature platelets. How it is done: CR3 expression was monitored by flow cytometry using a PE-conjugated anti-human CD11b/Mac-1 mAb. Undifferentiated or differentiated THP-1 cells (2×10^6/ml) were plated onto 24-well plates and allowed to adhere for 45 minutes at 37° C. The adherent undifferentiated or differentiated macrophages were activated by the addition of 15 ng/ml PMA for 15 min. CM-range-labeled, chilled or room temperature platelets (10^7/well), previously subjected to different treatments were added to the undifferentiated or differentiated phagocytes in Ca^2+- and Mg^2+-containing HBSS and incubated for 30 min at 37° C. Following the incubation period, the phagocyte monolayer was washed with HBSS for 3 times, and adherent platelets were removed by treatment with 0.05% trypsin/0.53 mM EDTA in HBSS at 37° C. for 5 min followed by 5 mM EDTA at 4° C. to detach the macrophages for flow cytometric analysis of adhesion or ingestion of platelets (Brown et al., 2000). […] CM-Orange-labeled platelets incubated with macrophages were resolved from the phagocytes according to their forward and side scatter properties. The macrophages were gated, 10,000 events acquired for each sample, and data analyzed with CELLQuest software (Becton Dickenson).
To analyze the effects of monosaccharides on platelet phagocytosis, phagocytes (differentiated monocytic cell line THP-1) were incubated in monosaccharide solutions at various concentrations, and the chilled or room temperature platelets were added. Values in the Figures are means±SD of 3-5 experiments comparing percentages of orange-positive monocytes containing ingested platelets incubated with RT or chilled platelets).

The test system of assay [2] is human platelets. Briefly: RCA I lectin binding to platelets by flow cytometry. The assay is classed as cell-based. Particulars: chilled or room temperature human platelets; control nucleotides. Background: Flow cytometry measures light scatter and fluorescence of single cells or particles in a stream.
In another assay the test system is chilled human platelets. Briefly: FITC-WGA / S-WGA lectin binding to platelets by flow cytometry. The assay is classed as cell-based. The note with it: chilled or room temperature human platelets; control nucleotides.
A further assay deals with Murine platelets. In words: Immunolabeling and flow cytometry of chilled versus room temperature platelets (murine). The assay is classed as cell-based. The note with it: mean±SD, n=3−4. On the procedure: (§1) Washed murine or human platelets (2×10^6) were analyzed for surface expression of CD62P, CD61, or surface bound IgM and IgG after chilling or room temperature storage by staining with fluorophore-conjugated Abs (5 μg/ml) for 10 min at 37° C. Phosphatidylserine exposure by chilled or room temperature platelets was determined by resuspending 5 μl of platelets in 400 μl of HBSS containing 10 mM Ca^2+ with 10 μg/ml of FITC-conjugated annexin-V. As a positive control for PS exposure, platelet suspensions were stimulated with 1 μM A23187. Fibrinogen binding was determined by the addition of Oregon Green-fibrinogen for 20 min at room temperature. All platelet samples were analyzed immediately by flow cytometry. Platelets were gated by forward and side scatter characteristics.
(§2) The binding of fluorescently labeled antibodies or ligands against various receptors on chilled-rewarmed or room temperature human and murine platelets was measured by flow cytometry. The data are expressed as the ratio between the mean fluorophore bound to the surface of chilled versus room temperature platelets (mean±SD, n=3−4).

Assay [3] deals with human platelets. In words: Immunolabeling and flow cytometry of chilled versus room temperature platelets (human). The format is cell-based. The note with it: mean±SD, n=3−4. On the procedure:
as §1, §2

The conditions of assay [4]: mice lacking 2,3Sialyltransferase IV; cited from earlier work.
Assay [5] deals with platelet membrane glycoproteins. Briefly: Incorporation of 14C-labeled sugars into endogenous platelet glycoproteins (SDS-PAGE, autoradiography). The assay is classed as biochemical, human. Particulars: intact non-lysed platelets.
Experimental: Transfer of sialic acids to endogenous glycoproteins by platelet sialyltransferase activity was tested in two ways. […] Intact platelets suspended in buffer (140 mM NaCl, 3 mM KCl, 0.5 mM MgCl2, 5 mM NaHCO3, 10 mM Hepes, pH 7.4) were used to assess the capacity of surface exposed sialyltransferase activity to transfer to platelet membrane glycoproteins. […] Thus, it was possible to use three different glycan modification strategies: addition of 1) UDP-[^14C]-galactose, 2) UDP-[^14C]-galactose and CMP-[^14C]-sialic acid, and 3) CMP-[^14C]-sialic acid alone. The incorporation of radioactive sugar nucleotides were monitored by SDS-PAGE chromatography followed by autoradiography.
The incorporation of radioactive carbohydrate sialic acid in endogenous platelet acceptor proteins was evaluated by incubating either detergent lysed platelets or non-lysed platelets with CMP-[^14C]-sialic. The incorporation ^14C-sialic acid was monitored by SDS-PAGE chromatography of the glycosylation mixture followed by autoradiography. Briefly, human apheresis platelets were washed and resuspended in resuspension buffer (40 mM NaCl, 3 mM KCl, 0.5 mM MgCl2, 5 mM NaHCO3, 10 mM Hepes, pH 7.4) and split in two fractions. One fraction was incubated with addition of CMP-[^14C]-sialic acid at 37° C. for 60 minutes. […]

Experimental for chilled human platelets: We then investigated whether wheat germ agglutinin (WGA), a lectin with specificity towards the terminal sugar (GlcNAc), binds more effectively to chilled platelets than to room temperature platelets. Washed, chilled or room temperature platelets were incubated with 2 μg/ml of FITC coupled WGA or FITC coupled succinyl-WGA for 30 min at room temperature and analyzed by flow cytometry.
To analyze whether removal of GlcNAc residues reduces the binding of WGA to the platelet surface, chilled and room temperature washed human platelets were treated with 100 U/ml β-Hex for 30 min at 37° C.

Consider `O=C[C@H](O)[C@@H](O)[C@@H](O)[C@H](O)CO` [D-(+)-galactose], for which the “% inhibition phagocytosis” value in assay [1] (chilled platelets, monosaccharide 100 mM) was “did not significantly inhibit”.

Regarding `O=C[C@@H](O)[C@@H](O)[C@H](O)[C@H](O)CO` [D-(+)-mannose], the “inhibitory effect on chilled platelet phagocytosis (in words)” value in assay [1] (chilled platelets) was “no inhibitory effect”. The “inhibitory effect on RT platelet phagocytosis (in words)” value in assay [1] is “no inhibitory effect”.

As for `CC(=O)N[C@H]1C(O)O[C@H](CO)[C@@H](O)[C@@H]1O` (stereo partly drawn) [GlcNac, N-acetyl-D-glucosamine], in assay [1] (25 to 200 mM), the “inhibition of chilled platelet phagocytosis (in words)” value is given as “significantly inhibited”.

As to `CO[C@H]1O[C@H](CO)[C@@H](O)[C@H](O)[C@H]1O` [Methyl-α-D-glucopyranoside], the “inhibitory effect on chilled platelet phagocytosis (in words)” value in assay [1] (chilled platelets) is on record as “did not have an inhibitory effect”.

Consider `CO[C@H]1O[C@H](CO)[C@@H](O)[C@H](O)[C@@H]1O` [Methyl-α-D-mannopyranoside], for which the “inhibitory effect on chilled platelet phagocytosis (in words)” value in assay [1] (chilled platelets) was “no inhibitory effect”. Besides, the “inhibitory effect on RT platelet phagocytosis (in words)” value in assay [1] was “no inhibitory effect”.

With `COC1OC(CO)C(O)C(O)C1O` [Methyl-β-D-gludopyranoside], the “inhibitory effect on chilled platelet phagocytosis (in words)” value in assay [1] (chilled platelets) is recorded as “inhibited phagocytosis in a dose-dependent manner”.

As to `CO[C@@H]1O[C@H](CO)[C@@H](O)[C@H](O)[C@@H]1O` [Methyl-β-D-mannopyranoside], the “inhibitory effect on chilled platelet phagocytosis (in words)” value in assay [1] (chilled platelets) was “no inhibitory effect”. Also, the “inhibitory effect on RT platelet phagocytosis (in words)” value in assay [1] is on record as “no inhibitory effect”.

For the compound `O=c1ccn([C@@H]2O[C@H](COP(=O)(O)OP(=O)(O)O)[C@@H](O)[C@H]2O)c(=O)[nH]1` [UDP], the “effect on RCA I binding” value with human platelets [2] was “no effect”. The “effect on S-WGA binding” value in the assay on chilled human platelets was “no effect”.

Consider `CC(=O)N[C@@H]1[C@@H](O)[C@H](O)[C@@H](CO)O[C@H]1O` [β-GlcNac], for which the “inhibition of the phagocytosis of chilled platelets” value in assay [1] (10 μM) was determined as 80%. Besides, the “inhibitory effect on chilled platelet phagocytosis (in words)” value in assay [1] (chilled platelets) was “strongly inhibited”.

As to “annexin V: FITC-conjugated annexin-V, ligand for phosphatidylserine exposure”, the “Binding ratio 4° C.:22° C.” value with Murine platelets is listed as 1.04 ± 0.02; in the assay on human platelets [3], 0.95 ± 0.09.

In the case of asialofetuin, the platelet count result in assay [4] was “corrects the platelet count”.

As to “cytidine monophospho-N-acetylneuraminic acid [CMP-sialic acid]”, in assay [5], the “incorporation of radioactive sugar into platelet membrane glycoproteins” value is “high level of incorporation”.

With fibrinogen, the “Binding ratio 4° C.:22° C.” value with Murine platelets was determined as 1.06 ± 0.06; in the assay on human platelets [3] it was 1.05 ± 0.10.
